Measured values: patent US11708348B2, “Protease inhibitors for treatment of coronavirus infections” (The Scripps Research Institute, priority 2021, dated 2023)
Read-outs that look alike come from different tables or passages of the source.

Test system: SARS-CoV-2 strain USA-WA1/2020
Assay: microbe, parasite or virus in culture
Assay type: cell-based
Settings: Severe acute respiratory syndrome coronavirus 2, HeLa-ACE2, 24 h, HeLa-ACE2 cells, SARS-CoV-2 infection, 24 h, read-out: EC50, uM (Hela)

## COc1cccc2c1OC(C(=O)N[C@@H](CC(C)C)C(=O)N[C@@H](C[C@@H]1CCNC1=O)C(=O)COC(F)(F)F)C2 (stereo partly drawn) [Compound 255, 7-methoxy-N-((S)-4-methyl-1-oxo-1-(((S)-3-oxo-1-((S)-2-oxopyrrolidin-3-yl)-4-(trifluoromethoxy)butan-2-yl)amino)pentan-2-yl)-2,3-dihydrobenzofuran-2-carboxamide]
Class symbols
  EC50: < 0.05 µM

## O=C(Nc1ccccc1C(F)(F)F)C(=O)N1CC2(CC2)C[C@H]1C(=O)N[C@@H](C[C@@H]1CCNC1=O)C(=O)COC(F)(F)F [Compound 576, (S)-N-((S)-3-oxo-1-((S)-2-oxopyrrolidin-3-yl)-4-(trifluoromethoxy)butan-2-yl)-5-(2-oxo-2-((2-(trifluoromethyl)-phenyl)amino)acetyl)-5-azaspiro[2.4]-heptane-6-carboxamide]
  EC50: < 0.05 µM

## O=C1NCC[C@H]1C[C@H](NC(=O)[C@@H]1[C@H]2CCC[C@H]2CN1C(=O)C(=O)N1CCOCC1)C(=O)COC(F)(F)F [Compound 544, (1S,3aR,6aS)-2-(2-morpholino-2-oxoacetyl)-N-((S)-3-oxo-1-((S)-2-oxopyrrolidin-3-yl)-4-(trifluoromethoxy)butan-2-yl)octahydrocyclo-penta[c]pyrrole-1-carboxamide]
  EC50: 0.5 to 1 µM

## CC(C)C[C@H](NC(=O)[C@H](O)CF)C(=O)N[C@@H](C[C@@H]1CCNC1=O)C(=O)COC(F)(F)F [Compound 396, (S)-2-((S)-3-fluoro-2-hydroxypropanamido)-4-methyl-N-((S)-3-oxo-1-((S)-2-oxopyrrolidin-3-yl)-4-(trifluoromethoxy)butan-2-yl)pentanamide]
Class symbols
  EC50: 0.2 to 0.5 µM

## CC1(NC(=O)C(=O)N[C@@H](Cc2cccc(F)c2)C(=O)N[C@@H](C[C@@H]2CCNC2=O)C(=O)COC(F)(F)F)CC1 [Compound 215, N1-((S)-3-(3-fluorophenyl)-1-oxo-1-(((S)-3-oxo-1-((S)-2-oxopyrrolidin-3-yl)-4-(trifluoromethoxy)butan-2-yl)amino)propan-2-yl)-N2-(1-methylcyclopropyl)-oxalamide]
Class symbols
  EC50: < 0.05 µM

## CC(C)[C@H](O)[C@@H](O)C(=O)N1CC2(CC2)C[C@H]1C(=O)N[C@@H](C[C@@H]1CCNC1=O)C(=O)COC(F)(F)F [Compound 726, (S)-5-((2R,3S)-2,3-dihydroxy-4-methylpentanoyl)-N-((S)-3-oxo-1-((S)-2-oxopyrrolidin-3-yl)-4-(trifluoromethoxy)butan-2-yl)-5-azaspiro[2.4]heptane-6-carboxamide]
  EC50: 0.2 to 0.5 µM

## CC(C)[C@@H](O)C(=O)N1CC2(CC2)C[C@H]1C(=O)N[C@@H](C[C@@H]1CCNC1=O)C(=O)COC(F)(F)F [Compound 356, (S)-5-((R)-2-hydroxy-3-methylbutanoyl)-N-((S)-3-oxo-1-((S)-2-oxopyrrolidin-3-yl)-4-(trifluoromethoxy)butan-2-yl)-5-azaspiro[2.4]heptane-6-carboxamide]
Class symbols
  EC50: 0.05 to 0.2 µM

## C[C@@H](O)C(=O)N1CC2(CC2)C[C@H]1C(=O)N[C@@H](C[C@@H]1CCNC1=O)C(=O)COC(F)(F)F [Compound 697, (S)-5-((R)-2-hydroxypropanoyl)-N-((S)-3-oxo-1-((S)-2-oxopyrrolidin-3-yl)-4-(trifluoromethoxy)butan-2-yl)-5-azaspiro[2.4]heptane-6-carboxamide]
  EC50: 0.05 to 0.2 µM

## CC(C)C[C@H](NC(=O)c1ncon1)C(=O)N[C@@H](C[C@@H]1CCNC1=O)C(=O)COC(F)(F)F [Compound 580, N-((S)-4-methyl-1-oxo-1-(((S)-3-oxo-1-((S)-2-oxopyrrolidin-3-yl)-4-(trifluoromethoxy)butan-2-yl)amino)pentan-2-yl)-1,2,4-oxadiazole-3-carboxamide]
  EC50: 0.2 to 0.5 µM

## CC1(C)[C@@H]2[C@@H](C(=O)N[C@@H](C[C@@H]3CCNC3=O)C(=O)COC(F)(F)F)N(C(=O)C(O)CC(F)(F)F)C[C@@H]21 (stereo partly drawn) [Compound 391, (1R,2S,5S)-6,6-dimethyl-N-((S)-3-oxo-1-((S)-2-oxopyrrolidin-3-yl)-4-(trifluoromethoxy)butan-2-yl)-3-(4,4,4-trifluoro-2-hydroxybutanoyl)-3-azabicyclo[3.1.0]-hexane-2-carboxamide]
Class symbols
  EC50: 0.05 to 0.2 µM

## O=C(Nc1ccccc1F)C(=O)N1CCCCC[C@H]1C(=O)N[C@@H](C[C@@H]1CCNC1=O)C(=O)COC(F)(F)F [Compound 584, (S)-1-(2-((2-fluorophenyl)amino)-2-oxoacetyl)-N-((S) -3-oxo-1-((S)-2-oxopyrrolidin-3-yl)-4-(trifluoromethoxy)butan-2-yl)azepane-2-carboxamide]
  EC50: < 0.05 µM

## CC1(C)[C@@H]2[C@@H](C(=O)N[C@@H](C[C@@H]3CCNC3=O)C(=O)COC(F)(F)F)N(C(=O)C(=O)NC3(C(F)(F)F)CC3)C[C@@H]21 [Compound 475, (1R,2S,5S)-6,6-dimethyl-N-((S)-3-oxo-1-((S)-2-oxopyrrolidin-3-yl)-4-(trifluoromethoxy)butan-2-yl)-3-(2-oxo-2-((1-(trifluoromethyl)-cyclopropyl)amino)acetyl)-3-zabicyclo[3.1.0]hexane-2-carboxamide]
  EC50: 0.05 to 0.2 µM

## CC(C)(F)C[C@H](NC(=O)c1cc2cc(F)ccc2[nH]1)C(=O)N[C@@H](C[C@@H]1CCNC1=O)C(=O)COc1c(F)c(F)cc(F)c1F [Compound 18, 5-fluoro-N-((S)-4-fluoro-4-methyl-1-oxo-1-(((S)-3-oxo-1-((S)-2-oxopyrrolidin-3-yl)-4-(2,3,5,6-tetrafluorophenoxy)butan-2-yl)amino)pentan-2-yl)-1H-indole-2-carboxamide]
Class symbols
  EC50: 0.5 to 1 µM

## CC(C)(F)c1cc(C(=O)N2C[C@@H]3CCC[C@@H]3[C@H]2C(=O)N[C@@H](C[C@@H]2CCNC2=O)C(=O)COC(F)(F)F)no1 [Compound 491, (1S,3aR,6aS)-2-(5-(2-fluoropropan-2-yl)isoxazole-3-carbonyl)-N-((S)-3-oxo-1-((S)-2-oxopyrrolidin-3-yl)-4-(trifluoromethoxy)butan-2-yl)octahydrocyclo-penta[c]pyrrole-1-carboxamide]
  EC50: < 0.05 µM

## CC(C)C[C@H](NC(=O)C(=O)N[C@@H]1CCCc2ccccc21)C(=O)N[C@@H](C[C@@H]1CCNC1=O)C(=O)COc1c(F)c(F)cc(F)c1F [Compound 147, N1-((S)-4-methyl-1-oxo-1-(((S)-3-oxo-1-((S)-2-oxopyrrolidin-3-yl)-4-(2,3,5,6-tetrafluorophenoxy)butan-2-yl)amino)pentan-2-yl)-N2-((R)-1,2,3,4-tetrahydronaphthalen-1-yl)oxalamide]
Class symbols
  EC50: 0.5 to 1 µM

## CC(C)C[C@H](NC(=O)[C@H](O)C(C)(C)C)C(=O)N[C@@H](C[C@@H]1CCNC1=O)C(=O)COC(F)(F)F [Compound 341, (S)-2-((R)-2-hydroxy-3,3-dimethylbutanamido)-4-methyl-N-((S)-3-oxo-1-((S)-2-oxopyrrolidin-3-yl)-4-(trifluoromethoxy)butan-2-yl)pentanamide]
Class symbols
  EC50: 0.05 to 0.2 µM

## CC1(C)[C@@H]2[C@@H](C(=O)N[C@@H](C[C@@H]3CCNC3=O)C(=O)COC(F)(F)F)N(C(=O)C(=O)NC3CC(F)(F)C3)C[C@@H]21 [Compound 536, (1R,2S,5S)-3-(2-((3,3-difluorocyclo-butyl)amino)-2-oxoacetyl)-6,6-dimethyl-N-((S)-3-oxo-1-((S)-2-oxopyrrolidin-3-yl)-4-(trifluoromethoxy)butan-2-yl)-3-azabicyclo-[3.1.0]hexane-2-carboxamide]
  EC50: 0.05 to 0.2 µM

## CC(C)(C)C[C@@H](O)C(=O)N1C[C@H]2[C@@H]([C@H]1C(=O)N[C@@H](C[C@@H]1CCNC1=O)C(=O)COC(F)(F)F)C2(C)C [Compound 454, (1R,2S,5S)-3-((R)-2-hydroxy-4,4-dimethylpentanoyl)-6,6-dimethyl-N-((S)-3-oxo-1-((S)-2-oxopyrrolidin-3-yl)-4-(trifluoromethoxy)butan-2-yl)-3-azabicyclo[3.1.0]-hexane-2-carboxamide]
  EC50: < 0.05 µM

## CC(C)C[C@H](NC(=O)c1cc(-c2ccccn2)on1)C(=O)N[C@@H](C[C@@H]1CCNC1=O)C(=O)COC(F)(F)F [Compound 464, N-((S)-4-methyl-1-oxo-1-(((S)-3-oxo-1-((S)-2-oxopyrrolidin-3-yl)-4-(trifluoromethoxy)butan-2-yl)amino)pentan-2-yl)-5-(pyridin-2-yl)isoxazole-3-carboxamide]
  EC50: < 0.05 µM

## CC(C)C[C@H](NC(=O)C(=O)NC(C)(C)C(F)F)C(=O)N[C@@H](C[C@@H]1CCNC1=O)C(=O)COC(F)(F)F [Compound 246, N1-(1,1-difluoro-2-methylpropan-2-yl)-N2-((S)-4-methyl-1-oxo-1-(((S)-3-oxo-1-((S)-2-oxopyrrolidin-3-yl)-4-(trifluoromethoxy)butan-2-yl)amino)pentan-2-yl)oxalamide]
Class symbols
  EC50: < 0.05 µM

## CC(C)C[C@H](NC(=O)C1CCC(=O)O1)C(=O)N[C@@H](C[C@@H]1CCNC1=O)C(=O)COC(F)(F)F (stereo partly drawn) [Compound 213, N-((S)-4-methyl-1-oxo-1-(((S)-3-oxo-1-((S)-2-oxopyrrolidin-3-yl)-4-(trifluoromethoxy)butan-2-yl)amino)pentan-2-yl)-5-oxotetrahydrofuran-2-carboxamide]
Class symbols
  EC50: 0.5 to 1 µM

## CC(C)C[C@H](NC(=O)C(=O)NC1CCCCC1(F)F)C(=O)N[C@@H](C[C@@H]1CCNC1=O)C(=O)COC(F)(F)F (stereo partly drawn) [Compound 169, N1-(2,2-difluorocyclohexyl)-N2-((S)-4-methyl-1-oxo-1-(((S)-3-oxo-1-((S)-2-oxopyrrolidin-3-yl)-4-(trifluoromethoxy)butan-2-yl)amino)pentan-2-yl)oxalamide]
Class symbols
  EC50: < 0.05 µM

## CC1(NC(=O)C(=O)N2CC3(CC3)C[C@H]2C(=O)N[C@@H](C[C@@H]2CCNC2=O)C(=O)COC(F)(F)F)CC1 [Compound 571, (S)-5-(2-((l-methylcyclopropyl)-amino)-2-oxoacetyl)-N-((S)-3-oxo-1-((S)-2-oxopyrrolidin-3-yl)-4-(trifluoromethoxy)butan-2-yl)-5-azaspiro[2.4]-heptane-6-carboxamide]
  EC50: 0.05 to 0.2 µM
